Measurements: ChEMBL document CHEMBL1770132, “The discovery of high affinity agonists of GPR109a with reduced serum shift and improved ADME properties” (Bioorg Med Chem Lett, 2011)

Tests used:
Format in all cases: ADME, organism-based
[1] = Half life in plasma of C57BL/6 mouse at 1 mg/kg, iv and 2 mg/kg, po
[2] = Half life in plasma of C57BL/6 mouse
[3] = Plasma clearance in Sprague-Dawley rat
[4] = Half life in Sprague-Dawley rat; conditions: in vivo
[5] = Bioavailability in Sprague-Dawley rat at 1 mg/kg, iv and 2 mg/kg, po; conditions: in vivo
[6] = Plasma clearance in C57BL/6 mouse
[7] = Bioavailability in C57BL/6 mouse at 1 mg/kg, iv and 2 mg/kg, po; conditions: in vivo

SMILES	half-life [1]	half-life [2]	clearance [3]	half-life [4]	bioavailability [5]	clearance [6]	bioavailability [7]
O=C(CCc1ccc(-c2ccc(O)cc2)cc1)Nc1ccccc1C(=O)O	2.4 h						
C[C@@H]1CCC(C(=O)O)=C(NC(=O)[C@@H](N)Cc2nc(-c3ccc(O)cn3)no2)C1		2.64 h				9.22 mL/min/kg	7.5%
C[C@@H]1CCC(C(=O)O)=C(NC(=O)[C@@H](N)Cc2nc(-c3ccc(F)cn3)no2)C1		5.6 h	0.7 mL/min/kg	5.5 h	81%	1.7 mL/min/kg	100%

Other lines, results leading:

half-life [1]	half-life [2]	clearance [3]	half-life [4]	bioavailability [5]	clearance [6]	bioavailability [7]	SMILES
	1.4 h	1 mL/min/kg	2.2 h	8.1%			O=C(CCc1nc(-c2ccc(O)cn2)no1)NC1=C(C(=O)O)CCCC1
	4.5 h	0.7 mL/min/kg	2.3 h	2%	2.5 mL/min/kg	9%	N[C@@H](Cc1nc(-c2ccc(O)cn2)no1)C(=O)NC1=C(C(=O)O)CCCC1
	4.7 h				3.3 mL/min/kg	54%	C[C@@H]1CCC(C(=O)O)=C(NC(=O)CCc2nc(-c3ccc(F)cn3)no2)C1
